Experimental data reported in patent US20100041089A1, “IMPROVED METHOD FOR DETECTING CHEMICAL […]” (priority 2006, published 2010).

Tested on: yeast genes (expressed mRNA)
Assay: DNA chip measurement of expressed mRNA of yeast genes after culture with a toxic chemical substance
Format: cell-based, Saccharomyces cerevisiae S288C
Procedure, shortened: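 S. cerevisiae S288C grown at 25 °C in YPD, exposed in log phase for 2 h to a toxicant at growth-inhibiting, non-lethal concentration. Cy3/Cy5-labelled cDNA from poly(A) mRNA hybridized to whole-genome chip at 65 °C >12 h. Ratio to untreated control, ≥2 significant.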

## CN(C)C(=S)SSC(=S)N(C)C [(10), Tetramethylthiuram disulfide]
Yeast gene YAL053W, cultured two hours with substance
  The level of expressed mRNA in the presence of chemical substance/The level of expressed mRNA in the absence of chemical substance: 0.9
Yeast gene YAR028W, cultured two hours with substance
  The level of expressed mRNA in the presence of chemical substance/The level of expressed mRNA in the absence of chemical substance: 0.9
Yeast gene YBL043W
  The level of expressed mRNA in the presence of chemical substance/The level of expressed mRNA in the absence of chemical substance: 14.7
Yeast gene YBL048W, cultured two hours with substance
  The level of expressed mRNA in the presence of chemical substance/The level of expressed mRNA in the absence of chemical substance: 4.4
Yeast gene YBL078C
  The level of expressed mRNA in the presence of chemical substance/The level of expressed mRNA in the absence of chemical substance: 15.2
Yeast gene YBL107C, cultured two hours with substance
  The level of expressed mRNA in the presence of chemical substance/The level of expressed mRNA in the absence of chemical substance: 3.1
Yeast gene YBR008C (detoxification protein gene)
  The level of expressed mRNA in the presence of chemical substance/The level of expressed mRNA in the absence of chemical substance: 21.1
Yeast gene YBR008C (transport facilitation protein gene)
  The level of expressed mRNA in the presence of chemical substance/The level of expressed mRNA in the absence of chemical substance: 21.1
Yeast gene YBR046C
  The level of expressed mRNA in the presence of chemical substance/The level of expressed mRNA in the absence of chemical substance: 6.2
Yeast gene YBR072W (stress protein genes)
  The level of expressed mRNA in the presence of chemical substance/The level of expressed mRNA in the absence of chemical substance: 43.4
Yeast gene YBR099C, cultured two hours with substance
  The level of expressed mRNA in the presence of chemical substance/The level of expressed mRNA in the absence of chemical substance: 12.9
Yeast gene YCL027W
  The level of expressed mRNA in the presence of chemical substance/The level of expressed mRNA in the absence of chemical substance: 16.3
Yeast gene YCL069W (detoxification protein gene)
  The level of expressed mRNA in the presence of chemical substance/The level of expressed mRNA in the absence of chemical substance: 6.9
Yeast gene YCL069W (transport facilitation protein gene)
  The level of expressed mRNA in the presence of chemical substance/The level of expressed mRNA in the absence of chemical substance: 6.9
Yeast gene YCR102C, cultured two hours with substance
  The level of expressed mRNA in the presence of chemical substance/The level of expressed mRNA in the absence of chemical substance: 61.5
Yeast gene YDL021W, cultured for two hours with substance
  The level of expressed mRNA in the presence of chemical substance/The level of expressed mRNA in the absence of chemical substance: 7.4
Yeast gene YDL059C, DNA repair protein genes, cultured two hours with substance
  The level of expressed mRNA in the presence of chemical substance/The level of expressed mRNA in the absence of chemical substance: 7.8
Yeast gene YDL072C, cultured two hours with substance
  The level of expressed mRNA in the presence of chemical substance/The level of expressed mRNA in the absence of chemical substance: 1.5
Yeast gene YDL204W, cultured two hours with substance
  The level of expressed mRNA in the presence of chemical substance/The level of expressed mRNA in the absence of chemical substance: 2.0
Yeast gene YDL218W, cultured two hours with substance
  The level of expressed mRNA in the presence of chemical substance/The level of expressed mRNA in the absence of chemical substance: 12.6
Yeast gene YDL222C, cultured two hours with substance
  The level of expressed mRNA in the presence of chemical substance/The level of expressed mRNA in the absence of chemical substance: 1.0
Yeast gene YDL243C
  The level of expressed mRNA in the presence of chemical substance/The level of expressed mRNA in the absence of chemical substance: 29.6
Yeast gene YDL243C, cultured for two hours with substance
  The level of expressed mRNA in the presence of chemical substance/The level of expressed mRNA in the absence of chemical substance: 29.6
Yeast gene YDR031W, cultured two hours with substance
  The level of expressed mRNA in the presence of chemical substance/The level of expressed mRNA in the absence of chemical substance: 2.7
Yeast gene YDR056C, cultured two hours with substance
  The level of expressed mRNA in the presence of chemical substance/The level of expressed mRNA in the absence of chemical substance: 2.3
Yeast gene YDR069C
  The level of expressed mRNA in the presence of chemical substance/The level of expressed mRNA in the absence of chemical substance: 4.5
Yeast gene YDR210W, cultured two hours with substance
  The level of expressed mRNA in the presence of chemical substance/The level of expressed mRNA in the absence of chemical substance: 1.0
Yeast gene YDR258C (stress protein genes)
  The level of expressed mRNA in the presence of chemical substance/The level of expressed mRNA in the absence of chemical substance: 13.3
Yeast gene YDR258C, mitochondria-located protein gene
  The level of expressed mRNA in the presence of chemical substance/The level of expressed mRNA in the absence of chemical substance: 13.3
Yeast gene YDR330W, cultured two hours with substance
  The level of expressed mRNA in the presence of chemical substance/The level of expressed mRNA in the absence of chemical substance: 2.6
Yeast gene YDR353W
  The level of expressed mRNA in the presence of chemical substance/The level of expressed mRNA in the absence of chemical substance: 5.1
Yeast gene YDR391C, cultured two hours with substance
  The level of expressed mRNA in the presence of chemical substance/The level of expressed mRNA in the absence of chemical substance: 2.7
Yeast gene YDR411C, cultured two hours with substance
  The level of expressed mRNA in the presence of chemical substance/The level of expressed mRNA in the absence of chemical substance: 1.0
Yeast gene YDR486C, cultured two hours with substance
  The level of expressed mRNA in the presence of chemical substance/The level of expressed mRNA in the absence of chemical substance: 5.8
Yeast gene YDR511W, cultured two hours with substance
  The level of expressed mRNA in the presence of chemical substance/The level of expressed mRNA in the absence of chemical substance: 2.2
Yeast gene YDR533C, cultured two hours with substance
  The level of expressed mRNA in the presence of chemical substance/The level of expressed mRNA in the absence of chemical substance: 12.7
Yeast gene YDR545W, cultured two hours with substance
  The level of expressed mRNA in the presence of chemical substance/The level of expressed mRNA in the absence of chemical substance: 0.7
Yeast gene YEL001C, cultured two hours with substance
  The level of expressed mRNA in the presence of chemical substance/The level of expressed mRNA in the absence of chemical substance: 1.2
Yeast gene YER004W, cultured two hours with substance
  The level of expressed mRNA in the presence of chemical substance/The level of expressed mRNA in the absence of chemical substance: 2.9
Yeast gene YER035W, cultured two hours with substance
  The level of expressed mRNA in the presence of chemical substance/The level of expressed mRNA in the absence of chemical substance: 1.4
Yeast gene YER038C, cultured two hours with substance
  The level of expressed mRNA in the presence of chemical substance/The level of expressed mRNA in the absence of chemical substance: 2.5
Yeast gene YER069W
  The level of expressed mRNA in the presence of chemical substance/The level of expressed mRNA in the absence of chemical substance: 10.4
Yeast gene YER069W, mitochondria-located protein gene
  The level of expressed mRNA in the presence of chemical substance/The level of expressed mRNA in the absence of chemical substance: 10.4
Yeast gene YER079W, cultured two hours with substance
  The level of expressed mRNA in the presence of chemical substance/The level of expressed mRNA in the absence of chemical substance: 3.4
Yeast gene YER106W, cultured two hours with substance
  The level of expressed mRNA in the presence of chemical substance/The level of expressed mRNA in the absence of chemical substance: 1.8
Yeast gene YER158C, cultured two hours with substance
  The level of expressed mRNA in the presence of chemical substance/The level of expressed mRNA in the absence of chemical substance: 1.6
Yeast gene YER163C, cultured two hours with substance
  The level of expressed mRNA in the presence of chemical substance/The level of expressed mRNA in the absence of chemical substance: 3.4
Yeast gene YER175C, cultured two hours with substance
  The level of expressed mRNA in the presence of chemical substance/The level of expressed mRNA in the absence of chemical substance: 11.5
Yeast gene YFL006W, cultured two hours with substance
  The level of expressed mRNA in the presence of chemical substance/The level of expressed mRNA in the absence of chemical substance: 1.7
